# Target: mPGES-1 in A549 cells (Homo sapiens (Human), UniProt O14684)
# Experiment: A549 cell-based assay (PGE2 formation, 50% human serum)
# Details: IL-1β 5 ng/ml, 10 nM arachidonic acid, 20-24 h, read-out: mPGES-1 inhibitory effect IC50 in the cell assay
# Description: Although the enzymatic assay is a high throughput assay the disadvantage is that it uses a recombinant protein which is not in its natural environment. Accordingly a cellular assay was established in which a cell line of human origin (A549) expressing the mPGES-1 protein was used. In addition in order to mimic the situation in humans in which compounds can be bound to plasma proteins 50% human serum is added in the assay.
# A549 cells (ATCC: CCL-185) are grown to about 90% confluence in F-12K Nutrient Mixture (Kaighn's Mod. Gibco) containing 10% FBS in a humified incubator at 37° C. and 5% CO2. Cells were detached using Trypsin-EDTA. A549 cells were seeded in a 384-well collagene plate at a density of 7000 cells/well (50 μl) in F-12 medium containing 1% Penicillin-Streptomycin and 50% human serum. The cells were allowed to attach for 3-4 h. After that the cells were incubated for 20-24 h in F-12k medium supplemented with 50% human serum, 1% Penicillin-Streptomycin and containing IL-1β at a final concentration of 5 ng/ml as well as 10 nM arachidonic acid in the presence of a vehicle or a test compound. The total volume is 100 μl.
# Concentrations of PGE2 in the cell free medium (10 μl) were measured using a commercially available HTRF kit from Cisbio (as described above). The PGE2 formation in the absence of test compound was taken as 100%.
# IC50 values were derived from at 6-8 point titrations using conventional software.
# Sequence of mPGES-1 in A549 cells (O14684 whole entry): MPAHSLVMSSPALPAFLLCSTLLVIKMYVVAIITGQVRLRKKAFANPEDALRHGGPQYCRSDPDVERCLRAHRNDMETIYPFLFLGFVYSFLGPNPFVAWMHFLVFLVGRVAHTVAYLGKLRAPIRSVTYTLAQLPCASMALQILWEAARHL
row,Structure (SMILES),IC50 [nM]
1,Cn1c(Nc2c(Cl)ccc(CNC(=O)C(C)(C)C)c2F)nc2cc(C(=O)N[C@H]3CC[C@H](C(F)(F)F)CC3)c(N3CCC(C(F)(F)F)C3)cc21 (stereo partly shown) [Example 6],4
2,Cn1c(Nc2c(Cl)ccc(CNC(=O)C(C)(C)C)c2Cl)nc2cc(C(=O)NC3CC(F)(F)C3)c(NCC(F)F)cc21 [Example 16],197
3,CN(Cc1nnc[nH]1)c1cc2c(cc1C(=O)N[C@H]1CC[C@H](C(F)(F)F)CC1)nc(Nc1c(Cl)ccc(CNC(=O)C(C)(C)C)c1Cl)n2C [Example 114],3.5
4,CN(Cc1ncnn1C)c1cc2c(cc1C(=O)N[C@H]1CC[C@H](C(F)(F)F)CC1)nc(Nc1c(Cl)ccc(CNC(=O)C(C)(C)C)c1Cl)n2C [Example 116],80
5,Cc1n[nH]c(CN(C)c2cc3c(cc2C(=O)Nc2ccc(OC(F)(F)F)cc2)nc(Nc2c(Cl)ccc(CNC(=O)C(C)(C)F)c2Cl)n3C)n1 [Example 143],2.6
6,Cn1c(Nc2c(Cl)ccc(CNC(=O)C(C)(C)F)c2Cl)nc2cc(C(=O)NCCC(F)(F)F)c(N3CCC4(CC3)CC4)cc21 [Example 147],2
7,Cc1n[nH]c(CN(C)c2cc3c(cc2C(=O)NCC(F)(F)C(F)(F)F)nc(Nc2c(Cl)ccc(CNC(=O)C(C)(C)F)c2Cl)n3C)n1 [Example 152],17
8,Cn1c(Nc2c(Cl)ccc(CNC(=O)C(C)(C)F)c2Cl)nc2cc(C(=O)NCC(F)(F)C(F)(F)F)c(N3CCOCC3)cc21 [Example 153],4.6
9,Cn1c(Nc2c(Cl)ccc(CNC(=O)C(C)(C)C)c2Cl)nc2cc(C(=O)N[C@H]3CC[C@@H](C(F)(F)F)CC3)c(N3CC4CC4C3)cc21 (stereo partly shown) [Example 155],6
10,CC(C)(O)Cn1c(Nc2c(Cl)ccc(CNC(=O)C(C)(C)C)c2Cl)nc2cc(C(=O)Nc3ccc(OC(F)(F)F)cc3)c(N3CCC(C(F)(F)F)CC3)cc21 [Example 167],2.4
11,CC(C)(C)C(=O)NCc1ccc(Cl)c(Nc2nc3cc(C(=O)Nc4ccc(OC(F)(F)F)cc4)c(N4CCC(C(F)(F)F)CC4)cc3n2CCC(N)=O)c1Cl [Example 169],5
12,CC(C)(C)C(=O)NCc1ccc(Cl)c(Nc2nc3cc(C(=O)N[C@H]4CC[C@H](C(F)(F)F)CC4)c(N4CCOCC4)cc3n2CCC(N)=O)c1Cl [Example 170],110
13,CC(C)(C)C(=O)NCc1ccc(Cl)c(Nc2nc3cc(C(=O)N[C@H]4CC[C@H](C(F)(F)F)CC4)c(N4CCC(C(F)(F)F)CC4)cc3n2CCC(N)=O)c1Cl [Example 171],6
14,Cn1c(Nc2c(Cl)ccc(CNC(=O)c3cccc[n+]3[O-])c2Cl)nc2cc(C(=O)NCCC(F)(F)F)c(N3CCC(C(F)(F)F)CC3)cc21 [Example 174],> 100
15,Cn1nc(C(=O)NCc2ccc(Cl)c(Nc3nc4cc(C(=O)NCCC(F)(F)F)c(N5CCC(C(F)(F)F)CC5)cc4n3C)c2Cl)cc1N [Example 180],> 100
16,Cn1c(Nc2c(Cl)ccc(CNC(=O)c3cc(CO)ccn3)c2Cl)nc2cc(C(=O)NCCC(F)(F)F)c(N3CCC(C(F)(F)F)CC3)cc21 [Example 181],> 100
17,Cn1c(Nc2c(Cl)ccc(CNC(=O)c3n[nH]c4c3CCC4)c2Cl)nc2cc(C(=O)NCCC(F)(F)F)c(N3CCC(C(F)(F)F)CC3)cc21 [Example 183],> 100
18,Cn1c(Nc2c(Cl)ccc(CNC(=O)c3cc[nH]n3)c2Cl)nc2cc(C(=O)NCCC(F)(F)F)c(N3CCC(C(F)(F)F)CC3)cc21 [Example 184],> 100
19,Cn1c(Nc2c(Cl)ccc(CNC(=O)C3(O)CC3)c2Cl)nc2cc(C(=O)N[C@H]3CC[C@H](C(F)(F)F)CC3)c(N3CC4CC4C3)cc21 (stereo partly shown) [Example 189],3
20,Cn1c(Nc2c(Cl)ccc(CNC(=O)C(C)(C)O)c2Cl)nc2cc(C(=O)N[C@H]3CC[C@H](C(F)(F)F)CC3)c(N3CC4CC4C3)cc21 (stereo partly shown) [Example 190],9
21,Cn1c(Nc2c(Cl)ccc(CNC(=O)C(C)(C)F)c2Cl)nc2cc(C(=O)N[C@H]3CC[C@H](C(F)(F)F)CC3)c(N3CC4CC4C3)cc21 (stereo partly shown) [Example 191],2
22,Cn1c(Nc2c(Cl)ccc(CNC(=O)[C@@](C)(O)C(F)(F)F)c2Cl)nc2cc(C(=O)N[C@H]3CC[C@H](C(F)(F)F)CC3)c(N3CC4CC4C3)cc21 (stereo partly shown) [Example 193],2.5
23,Cn1c(Nc2c(Cl)ccc(CNC(=O)C(C)(C)CO)c2Cl)nc2cc(C(=O)N[C@H]3CC[C@H](C(F)(F)F)CC3)c(N3CC4CC4C3)cc21 (stereo partly shown) [Example 194],2.1
24,CN(C)c1ccnc(C(=O)NCc2ccc(Cl)c(Nc3nc4cc(C(=O)N[C@H]5CC[C@H](C(F)(F)F)CC5)c(N5CC6CC6C5)cc4n3C)c2Cl)c1 (stereo partly shown) [Example 195],51
25,Cc1ccnc(C(=O)NCc2ccc(Cl)c(Nc3nc4cc(C(=O)N[C@H]5CC[C@H](C(F)(F)F)CC5)c(N5CC6CC6C5)cc4n3C)c2Cl)c1 (stereo partly shown) [Example 196],9
26,CNc1cncc(C(=O)NCc2ccc(Cl)c(Nc3nc4cc(C(=O)N[C@H]5CC[C@H](C(F)(F)F)CC5)c(N5CC6CC6C5)cc4n3C)c2Cl)c1 (stereo partly shown) [Example 198],> 100
27,Cc1ccc(C(=O)NCc2ccc(Cl)c(Nc3nc4cc(C(=O)N[C@H]5CC[C@H](C(F)(F)F)CC5)c(N5CC6CC6C5)cc4n3C)c2Cl)nc1C (stereo partly shown) [Example 199],8

# Further lines, results first:
row,IC50 [nM],Structure (SMILES)
1,1,"Cn1c(Nc2c(Cl)ccc(CNC(=O)C(C)(C)C)c2Cl)nc2cc(C(=O)N[C@H]3CC[C@H](C(F)(F)F)CC3)c(N3CCC(F)(F)C3)cc21 [Example 20, N-(trans-4-Trifluoromethyl-cyclohexyl)-2-{2,6-dichloro-3-[(2,2-dimethyl-propionylamino)-methyl]-phenylamino}-6-[3,3-difluoro-pyrrolidinyl]-1-methyl-1H-benzimidazole-5-carboxylic acid amide]"
2,< 1,"Cn1c(Nc2c(Cl)ccc(CNC(=O)C(C)(C)C)c2Cl)nc2cc(C(=O)N[C@H]3CC[C@H](C(F)(F)F)CC3)c(N3CCC(C(F)(F)F)CC3)cc21 [Example 52, N-(trans-4-Trifluoromethyl-cyclohexyl)-2-{2,6-dichloro-3-[(2,2-dimethyl-propionylamino)-methyl]-phenylamino}-6-[4-trifluoromethyl-piperidinyl]-1-methyl-1H-benzimidazole-5-carboxylic acid amide]"
3,2,"CC(C)(C)C(=O)NCc1ccc(Cl)c(Nc2nc3cc(C(=O)Nc4ccc(OC(F)(F)F)cc4)c(N4CC[C@@H](F)C4)cc3n2CC(F)F)c1Cl [Example 77, (R)—N-(4-Trifluoromethoxy-phenyl)-2-{2,6-dichloro-3-[(2,2-dimethyl-propionylamino)-methyl]-phenylamino}-6-[3-fluoro-pyrrolidinyl]-1-(2,2-difluorethyl)-1H-benzimidazole-5-carboxylic acid amide]"
4,2,Cc1n[nH]c(CN(C)c2cc3c(cc2C(=O)N[C@H]2CC[C@H](C(F)(F)F)CC2)nc(Nc2c(Cl)ccc(CNC(=O)C(C)(C)F)c2Cl)n3C)n1 [Example 115]
5,1,Cn1c(Nc2c(Cl)ccc(CNC(=O)C(C)(C)F)c2Cl)nc2cc(C(=O)N[C@H]3CC[C@H](C(F)(F)F)CC3)c(N3CCC4(CC3)CC4)cc21 [Example 123]
6,2,Cn1c(Nc2c(Cl)ccc(CNC(=O)C(C)(C)F)c2Cl)nc2cc(C(=O)N[C@H]3CC[C@H](C(F)(F)F)CC3)c(N3CCC(C(C)(C)O)CC3)cc21 [Example 124]
7,1.4,Cn1c(Nc2c(Cl)ccc(CNC(=O)C(C)(C)C)c2Cl)nc2cc(C(=O)N[C@H]3CC[C@H](C(F)(F)F)CC3)c(N3CCC(F)CC3)cc21 [Example 125]
8,2,Cn1c(Nc2c(Cl)ccc(CNC(=O)C(C)(C)F)c2Cl)nc2cc(C(=O)Nc3ccc(OC(F)(F)F)cc3)c(N3CCOCC3)cc21 [Example 142]
9,< 1,Cn1c(Nc2c(Cl)ccc(CNC(=O)C(C)(C)F)c2Cl)nc2cc(C(=O)N[C@H]3CC[C@H](C(F)(F)F)CC3)c(N3CCOCC3)cc21 [Example 146]
10,1.4,Cn1c(Nc2c(Cl)ccc(CNC(=O)C(C)(C)C)c2Cl)nc2cc(C(=O)NCC(F)(F)C(F)(F)F)c(N3CCC(F)CC3)cc21 [Example 151]
11,1,Cn1c(Nc2c(Cl)ccc(CNC(=O)C(C)(C)C)c2Cl)nc2cc(C(=O)Nc3cc(C(C)(C)C)no3)c(N3CCC(C(F)(F)F)CC3)cc21 [Example 157]
12,1,Cn1c(Nc2c(Cl)ccc(CNC(=O)C3(C)CC3)c2Cl)nc2cc(C(=O)N[C@H]3CC[C@H](C(F)(F)F)CC3)c(N3CC4CC4C3)cc21 (stereo partly shown) [Example 187]
13,1,Cn1c(Nc2c(Cl)ccc(CNC(=O)C3(C(F)(F)F)CC3)c2Cl)nc2cc(C(=O)N[C@H]3CC[C@H](C(F)(F)F)CC3)c(N3CC4CC4C3)cc21 (stereo partly shown) [Example 188]
14,1,Cn1c(Nc2c(Cl)ccc(CNC(=O)[C@@](C)(O)C(F)(F)F)c2Cl)nc2cc(C(=O)N[C@H]3CC[C@H](C(F)(F)F)CC3)c(N3CC4CC4C3)cc21 (stereo partly shown) [Example 192]

# Same assay, conditions: Table C comparison of selected benzimidazoles, read-out: Cell IC50
row,IC50 [nM],Structure (SMILES)
1,1,"Cn1c(Nc2c(Cl)ccc(CNC(=O)C(C)(C)C)c2Cl)nc2cc(C(=O)N[C@H]3CC[C@H](C(F)(F)F)CC3)c(N3CCC(F)(F)C3)cc21 [Example 20, N-(trans-4-Trifluoromethyl-cyclohexyl)-2-{2,6-dichloro-3-[(2,2-dimethyl-propionylamino)-methyl]-phenylamino}-6-[3,3-difluoro-pyrrolidinyl]-1-methyl-1H-benzimidazole-5-carboxylic acid amide]"

# Same assay, conditions: mPGES-1 inhibitory effect IC50 in the cell assay, IL-1β 5 ng/ml, 10 nM arachidonic acid, 20-24 h
row,Structure (SMILES),IC50 [nM]
1,"CC(C)(C)C(=O)NCc1ccc(Cl)c(Nc2nc3cc(C(=O)N[C@H]4CC[C@H](C(F)(F)F)CC4)c(N4CCOCC4)cc3n2CC(F)F)c1Cl [Example 71, N-(trans-4-Trifluoromethyl-cyclohexyl)-2-{2,6-dichloro-3-[(2,2-dimethyl-propionylamino)-methyl]-phenylamino}-6-[morpholin-1-yl]-(2,2-difluoroethyl)-benzimidazole-5-carboxylic acid amide]",< 1

# — patent US8674113B2, “Compounds” (Boehringer Ingelheim International GmbH, priority 2010, dated 2014)
